Columns and labels:
MDCK cells [1] = assay: Gentamicin immunolabeling of MDCK cells incubated with unlabeled gentamicin and La^+++; assay type: cell-based, canine; settings: 0.05, 0.5 and 5 mM La^+++, unlabeled gentamicin 30 seconds
Procedure: […] Cells were rinsed twice with PBS, fixed with 4% FA, then permeabilized with ice-cold methanol for 5 minutes, and rinsed 3 times with PBS, as described previously (Steyger et al., 2003). Cells were immunoblocked in 10% goat serum in PBS for 30 minutes, and then incubated with 50 μg/mL rabbit anti-gentamicin IgG (American Quaalex, San Clemente, Calif.) for 1 hour. After washing with 1% goat serum in PBS, cells were further incubated with 20 μg/mL Alexa-488-conjugated goat-anti-rabbit IgG antisera (Molecular Probes, Eugene, Oreg.) for 45 minutes, washed, post-fixed with 4% FA for 15 minutes, and washed again. For immunocytochemical controls, the primary IgG were omitted, or adsorbed with excess gentamicin (3 mg/mL) for 30 minutes prior to addition to cells. All wells were imaged using confocal microscopy.

MDCK cells [2] = assay: GTTR uptake into MDCK cells under TRPV1 agonists/antagonists, cation channel blockers, cations and pH (30-60 seconds, 20° C., FATX fixation, confocal imaging); settings: 0.5 or 5 mM La^+++ in HBSS pH 7.3, 30 seconds
Excerpt: MDCK cells were used as a model system to test regulation of GTTR uptake by conditions known to produce or modify a cation current through the TRPV1 channel. Conditions tested were varying extracellular calcium concentrations, pH, specific agonists, specific antagonists, and the non-specific cation channel blocker Ruthenium Red. In addition, we pre-mixed PIP2 with GTTR to determine whether that anionic phospholipid, known to bind gentamicin, would alter GTTR uptake. All these assays were done at room temperature (20° C.), for 30 or 60 seconds, and using doses of GTTR of 5 to 10 μg/ml, which are far below the typical therapeutic level of <300 μg/ml. Buffers used for treatment were as described for each experiment. Cells were quickly washed to replace culture medium with treatment buffer, treated as indicated, washed again after treatment, fixed immediately with 4% formaldehyde and 0.5% Triton X-100 (FATX), and washed prior to imaging.
Methods: Cells were seeded into 8-well coverglass chambers at 3000 cells/well and grown for 5 days.
Cells were washed three times with the buffer to be used in the particular experiment, treated with GTTR and experimental variable for 30 or 60 seconds at 20° C., precluding endocytosis. Following treatment, cells were rinsed three times with buffer, then fixed and delipidated with 4% formaldehyde plus 0.5% Triton X-100 (FATX) for 45 minutes. Following fixation, cells were rinsed with PBS (Invitrogen, CA) for at least 4-6 times, or until foaming in the suction pipette ceased. In contrast to previous experiments, no FBS was present in the treatment media, allowing for more rapid uptake of the antibiotic-based GTTR.
MDCK cells were washed with Hank's buffered salt solution (HBSS; Invitrogen, CA), then placed into buffers of varying potassium concentrations. HBSS was mixed with equi-osmolar KCl/HBSS to produce the required K^+ concentrations. Cells were treated with 1 μg/mL GTTR for 1 minute, then washed and fixed as described above.
Cells were washed with PBS (Invitrogen, CA), then placed into buffers containing varying concentrations of calcium, obtained by mixing HBSS with equimolar CaCl2, each at pH 7.3. Cells were treated with 5 μg/mL of GTTR for 30 seconds, then washed and fixed as above.
Cells were washed with saline, then treated with 5 μg/mL of GTTR in saline buffers of varying pH for 30 seconds, then washed and fixed as above. Sodium hydroxide and hydrochloric acid were used to alter pH. These experiments were performed in three different saline buffers: (i) PBS (no calcium), (ii) a mixture of […] for a final calcium concentration of 0.32 mM, and (iii) a mixture of three parts PBS to one part HBSS for a final calcium concentration of 0.97 mM.
Cells were washed three times with Ca^++-free saline (0.9% NaCl), then treated with 5 μg/mL GTTR and one of the following for 30 seconds: TRPV1 agonists (resiniferatoxin [RTX]; or anandamide [AND]; Alexis Biochemicals, San Diego, Calif.); or antagonists (iodo-RTX, or SB 366791; Tocris, Ellisville, Mo.). Cells were then washed in saline and fixed as above.
Cells were washed three times with Ca^++-free 0.9% NaCl, then treated with 5 μg/mL GTTR and one of the following for 30 seconds: 100 μM Ruthenium Red, 100 μM Ruthenium Red plus one of the TRPV1 agonists or antagonists described above; or lanthanum (La^+++) at 0.5 or 5 mM.

MDCK cells [3] = assay: GTTR uptake, distribution and saturability in MDCK cells (2 hours); assay type: cell-based, canine
Procedure: MDCK cells were treated with 1 μg/ml purified GTTR for […] in complete medium at 37° C., then washed 3× with complete medium.
(§1) Both OK and MDCK cells were used in these studies. Both cell lines were treated with GTTR at 1 μg/ml in complete culture medium for two hours at either 37° C. or over ice. These cells were also treated with a dose range of 0 to 4000 μg/ml of unlabeled GT. Cells were washed and imaged live, then fixed with FATX, and washed again with buffer prior to re-imaging (as in FIG. 6, A3). […] Thus, cytoplasmic, but not endosomal, uptake of GTTR was saturable.
(§2) GTTR treatment: Subconfluent MDCK or OK cells were treated with 1 μg/mL of GTTR, in complete medium, for 2 hours at 37° C. or on ice. (The amount of GTTR is expressed as the weight of the gentamicin moiety within the conjugate.) In competition experiments, MDCK cells were simultaneously treated with unlabeled gentamicin (up to 4 mg/mL) for 2 hours.
Fixation, delipidation, and washing: After treatment, cells were washed three times with complete medium, and then immediately imaged live (see below; FIG. 27A), or fixed. […] Alternatively, cells were fixed in 4% formaldehyde alone (FA), washed and imaged (FIG. 27C), prior to delipidated with 0.5% Triton X-100 in PBS, washed thoroughly, and imaged again (FIG. 27D). […]

[4] = test system: bullfrog saccular explants; assay: GTTR labeling of bullfrog saccular explants in vitro (specificity, Example 6); assay type: cell-based, Rana catesbeiana; settings: 300 μg/ml GTTR plus 40-fold excess unconjugated GT (12 mg/ml), 30 minutes
Procedure: Gentamicin sulfate (Sigma; 50 mg/ml in K2CO3, pH 9) and succinimidyl esters of Texas Red (Molecular Probes; 2 mg/ml in dimethyl formamide) were agitated together overnight to produce a gentamicin-Texas red conjugate (GTTR). Typically, 4.4 ml of 50 mg/ml (final volume) gentamicin sulfate (GT) was mixed with 0.6 ml of 2 mg/ml Texas Red esters (TR) to produce an approximately 300:1 molar ratio of GT:GTTR. A high ratio of free gentamicin to TR esters ensures a minimum of unbound TR molecules, and a binding ratio of 1 TR molecule to 1 GT molecule (Sandoval et al. 1998). Gentamicin sulfate has three isoforms with molecular weights of […], (C2) 463.5, and (C1a) 477.6. Texas Red succinimidyl esters have a molecular weight of 817. […]
For confocal microscopy, excised saccular explants were individually pre-loaded (for 40 minutes) with 50 μM MitoTracker, 50 nM Lysotracker Green, 1 μM NBD-ceramide and 1 μM ERtracker (Molecular Probes) in Wolfe-Quimby amphibian culture media to label lysosomes, Golgi bodies and endoplasmic reticulum, respectively, prior to incubation with 300 μg/ml GT/GTTR for 2 hours. […] For immunocytochemistry of gentamicin, explants were incubated with 300 μg/ml unconjugated gentamicin for 30 minutes or 2 hours, fixed, ice-cold acetone-permeabilized, and processed for indirect fluorescence immunocytochemistry. […]

MDCK kidney cell line = assay: Fluorescent microplate assay quantifying GTTR uptake; assay type: cell-based, canine; settings: 37° C. for two hours or room temperature for ten minutes
Excerpt: A fluorescent microplate assay was developed using the MDCK kidney cell line to quantify the modulation of GTTR uptake by agonists/antagonists of the TRVP1 channel (pH, Ca^2+, RTX, and iodo-RTX).

OK cells = assay: GTTR uptake, saturability, time and temperature in OK cells; assay type: cell-based, opossum
Procedure: as §1, §2
Fixation, delipidation, and washing: After treatment, cells were washed three times with complete medium, and then immediately imaged live (see below; FIG. 27A), or fixed. […] Alternatively, cells were fixed in 4% formaldehyde alone (FA), washed and imaged (FIG. 27C), prior to delipidated with 0.5% Triton X-100 in PBS, washed thoroughly, and imaged again (FIG. 27D). Control cells were incubated with hydrolyzed TR (at the same concentration as the TR moiety in the GTTR experiments) and then imaged live, or fixed, delipidated, washed and then imaged.
Both OK and MDCK cells were treated with GTTR at 1 μg/mL in complete culture medium for 2 hours at either 37° C. or over ice. These cells were also treated with a dose range of 0 to 4000 μg/mL of unlabeled GT. Cells were washed and imaged live (as in FIG. 27A), then fixed with FATX, and washed again with PBS prior to re-imaging (as in FIG. 27B). […]
OK cells were treated with 1 μg/mL of GTTR in complete culture medium, at 37° C. or on ice, for increasing time periods. […] (Note that live images were acquired without washing out GTTR from the extracellular medium, so fluorescence is visible outside the cells.) No endosomes were observed on OK cells treated on ice for 2 hours (FIG. 28, B1 inset). […]

Compound | intensity of gentamicin immunofluorescence (unconjugated gentamicin uptake) (MDCK cells [1]) | GTTR uptake (MDCK cells [2]) | cytoplasmic and nuclear GTTR (MDCK cells [3]; 1 μg/ml GTTR 2 hours, 37° C. or ice, unlabeled GT 0 to 4000 μg/ml) | cell morphology (MDCK cells [3]; 4 mg/mL gentamicin, 2 hours) | GTTR fluorescence in saccular explants [4] | GTTR uptake (quantitative microplate fluorescence) (MDCK kidney cell line) | cytoplasmic and nuclear GTTR (OK cells; OK cells, 1 μg/ml GTTR 2 hours, 37° C. or ice, unlabeled GT 0 to 4000 μg/ml) | cell morphology (OK cells; OK cells, 4 mg/mL gentamicin, 2 hours) | endosomal (vesicular) accumulation of GTTR (OK cells; live cells at 37° C., highest dose of unlabeled GT (4 mg/ml))
[La+3] [La^+++, Lanthanum] | serially decreased | serially decreased |  |  |  |  |  |  | 
gentamicin [unlabeled GT] |  |  | serially reduced the amount of GTTR | flattening of cells | reduced fluorescence in the sensory epithelium | reduced GTTR uptake | serially reduced the amount of GTTR | flattening of cells | not visibly altered

From patent US20070082858A1, “Methods and compositions for the prevention of toxic side effects of aminoglycoside medications” (priority 2004, published 2007)
